Source: patent US20120029187A1, “HALOALKYLSULFONANILIDE DERIVATIVE” (Nissan Chemical Industries, Ltd., priority 2009, published 2012)

Tests used:
Format in all cases: in vivo
transplanted rice = experiment: Test Example 1: preemergence treatment under submerged conditions, effect on crop; details: dose 2.52 g/a
How it was run: (§1)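 Alluvial soil flooded to 4 cm depth; barnyardgrass, bulrush and ducksalad sown and 2.5-leaf rice seedlings transplanted. Same day, water-diluted emulsifiable concentrates applied to the water surface at set doses (g/a). Kept at 25–30 °C in greenhouse; effects scored 0–5 by mortality after three weeks.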

ducksalad [1] = experiment: Test Example 1: herbicidal effects in preemergence treatment under submerged conditions; details: dose 2.52 g/a
How it was run: as §1

barnyardgrass [2] = experiment: as above; details: dose 2.52 g/a
How it was run: as §1

bulrush [3] = experiment: as above; details: dose 2.52 g/a
How it was run: as §1

velvetleaf [4] = experiment: Test Example 3: herbicidal effects in soil treatment; details: dose 3.2 g/a
How it was run: (§2)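 Seeds were sown in sterilized diluvial soil and covered with about 1.5 cm of soil. Compounds, formulated as emulsifiable concentrates and diluted with water, were sprayed evenly over the soil surface at set doses in g/a. Herbicidal effect was scored on a rating scale three weeks later.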

common chickweed [5] = experiment: as above; details: dose 3.2 g/a
How it was run: as §2

common ragweed [6] = experiment: as above; details: dose 3.2 g/a
How it was run: as §2

large crabgrass [7] = experiment: as above; details: dose 3.2 g/a
How it was run: as §2

giant foxtail [8] = experiment: as above; details: dose 3.2 g/a
How it was run: as §2

barnyardgrass [9] = experiment: as above; details: dose 3.2 g/a
How it was run: as §2

Italian ryegrass [10] = experiment: as above; details: dose 3.2 g/a
How it was run: as §2

posumbu knotweed [11] = experiment: as above; details: dose 3.2 g/a
How it was run: as §2

beadstraw [12] = experiment: as above; details: dose 3.2 g/a
How it was run: as §2

redroot pigweed [13] = experiment: as above; details: dose 3.2 g/a
How it was run: as §2

water foxtail [14] = experiment: as above; details: dose 3.2 g/a
How it was run: as §2

common lambsquater [15] = experiment: as above; details: dose 3.2 g/a
How it was run: as §2

velvetleaf [16] = experiment: Test Example 4: herbicidal effect in foliage treatment; details: dose 3.2 g/a, three weeks after application
How it was run: (§3)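 A uniform foliar spray of emulsifiable concentrate, diluted with water to give the stated g/a dose, was applied to plants raised for 14 days from seed in sterilized diluvial soil at 25 to 30° C. Herbicidal effects were scored three weeks later.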

common chickweed [17] = experiment: as above; details: dose 3.2 g/a, three weeks after application
How it was run: as §3

common ragweed [18] = experiment: as above; details: dose 3.2 g/a, three weeks after application
How it was run: as §3

large crabgrass [19] = experiment: as above; details: dose 3.2 g/a, three weeks after application
How it was run: as §3

giant foxtail [20] = experiment: as above; details: dose 3.2 g/a, three weeks after application
How it was run: as §3

barnyardgrass [21] = experiment: as above; details: dose 3.2 g/a, three weeks after application
How it was run: as §3

Italian ryegrass [22] = experiment: as above; details: dose 3.2 g/a, three weeks after application
How it was run: as §3

posumbu knotweed [23] = experiment: as above; details: dose 3.2 g/a, three weeks after application
How it was run: as §3

beadstraw [24] = experiment: as above; details: dose 3.2 g/a, three weeks after application
How it was run: as §3

redroot pigweed [25] = experiment: as above; details: dose 3.2 g/a, three weeks after application
How it was run: as §3

water foxtail [26] = experiment: as above; details: dose 3.2 g/a, three weeks after application
How it was run: as §3

common lambsquater [27] = experiment: as above; details: dose 3.2 g/a, three weeks after application
How it was run: as §3

ducksalad [28] = experiment: Test Example 2: herbicidal effects during the vegetation period under submerged conditions; details: treatment during the vegetation period under submerged conditions; dose 2.52 g/a
How it was run: (§4)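 Barnyardgrass, bulrush and ducksalad were co-sown in alluvial soil flooded to 4 cm and grown in a greenhouse at 25 to 30° C. At the 1- or 2-leaf stage, water-diluted emulsifiable concentrates went onto the water surface at set doses (g/a). Herbicidal effect was scored three weeks later on a graded scale.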

barnyardgrass [29] = experiment: as above; details: treatment during the vegetation period under submerged conditions; dose 2.52 g/a
How it was run: as §4

bulrush [30] = experiment: as above; details: treatment during the vegetation period under submerged conditions; dose 2.52 g/a
How it was run: as §4

SMILES: CCC(=O)N(c1ccccc1CN1COC2(CCC2)CC1=O)S(=O)(=O)C(F)(F)F [II-62]
- a: transplanted rice, effect on crop (evaluation scale 0-5) (transplanted rice): 0 (mortality of less than 5% (almost ineffective))
- C: ducksalad, herbicidal effect (evaluation scale 0-5) (ducksalad [1]): 5 (mortality of 90% or above (nearly complete death))
- A: barnyardgrass, herbicidal effect (evaluation scale 0-5) (barnyardgrass [2]): 5 (mortality of 90% or above (nearly complete death))
- B: bulrush, herbicidal effect (evaluation scale 0-5) (bulrush [3]): 5 (mortality of 90% or above (nearly complete death))
- I: velvetleaf, herbicidal effect (evaluation scale 0-5) (velvetleaf [4]): 5 (mortality of 90% or above (nearly complete death))
- N: common chickweed, herbicidal effect (evaluation scale 0-5) (common chickweed [5]): 5 (mortality of 90% or above (nearly complete death))
- J: common ragweed, herbicidal effect (evaluation scale 0-5) (common ragweed [6]): 4 (mortality of at least 70% and less than 90%)
- D: large crabgrass, herbicidal effect (evaluation scale 0-5) (large crabgrass [7]): 5 (mortality of 90% or above (nearly complete death))
- E: giant foxtail, herbicidal effect (evaluation scale 0-5) (giant foxtail [8]): 5 (mortality of 90% or above (nearly complete death))
- A: barnyardgrass, herbicidal effect (evaluation scale 0-5) (barnyardgrass [9]): 5 (mortality of 90% or above (nearly complete death))
- H: Italian ryegrass, herbicidal effect (evaluation scale 0-5) (Italian ryegrass [10]): 5 (mortality of 90% or above (nearly complete death))
- M: posumbu knotweed, herbicidal effect (evaluation scale 0-5) (posumbu knotweed [11]): 5 (mortality of 90% or above (nearly complete death))
- O: beadstraw, herbicidal effect (evaluation scale 0-5) (beadstraw [12]): 4 (mortality of at least 70% and less than 90%)
- K: redroot pigweed, herbicidal effect (evaluation scale 0-5) (redroot pigweed [13]): 4 (mortality of at least 70% and less than 90%)
- G: water foxtail, herbicidal effect (evaluation scale 0-5) (water foxtail [14]): 5 (mortality of 90% or above (nearly complete death))
- L: common lambsquater, herbicidal effect (evaluation scale 0-5) (common lambsquater [15]): 4 (mortality of at least 70% and less than 90%)
- I: velvetleaf, herbicidal effect (velvetleaf [16]): 5 (mortality of 90% or above (nearly complete death))
- N: common chickweed, herbicidal effect (common chickweed [17]): 4 (mortality of at least 70% and less than 90%)
- J: common ragweed, herbicidal effect (common ragweed [18]): 4 (mortality of at least 70% and less than 90%)
- D: large crabgrass, herbicidal effect (large crabgrass [19]): 5 (mortality of 90% or above (nearly complete death))
- E: giant foxtail, herbicidal effect (giant foxtail [20]): 5 (mortality of 90% or above (nearly complete death))
- A: barnyardgrass, herbicidal effect (barnyardgrass [21]): 5 (mortality of 90% or above (nearly complete death))
- H: Italian ryegrass, herbicidal effect (Italian ryegrass [22]): 4 (mortality of at least 70% and less than 90%)
- M: posumbu knotweed, herbicidal effect (posumbu knotweed [23]): 4 (mortality of at least 70% and less than 90%)
- O: beadstraw, herbicidal effect (beadstraw [24]): 4 (mortality of at least 70% and less than 90%)
- K: redroot pigweed, herbicidal effect (redroot pigweed [25]): 3 (mortality of at least 40% and less than 70%)
- G: water foxtail, herbicidal effect (water foxtail [26]): 5 (mortality of 90% or above (nearly complete death))
- L: common lambsquater, herbicidal effect (common lambsquater [27]): 4 (mortality of at least 70% and less than 90%)
- C: ducksalad, herbicidal effect (evaluation scale 0-5) (ducksalad [28]): 5 (mortality of 90% or above (nearly complete death))
- A: barnyardgrass, herbicidal effect (evaluation scale 0-5) (barnyardgrass [29]): 5 (mortality of 90% or above (nearly complete death))
- B: bulrush, herbicidal effect (evaluation scale 0-5) (bulrush [30]): 5 (mortality of 90% or above (nearly complete death))

SMILES: CCC(=O)N(c1ccccc1CN1COC(C)(CC(F)(F)F)CC1=O)S(=O)(=O)C(F)(F)F (centres unmarked) [II-52]
- a: transplanted rice, effect on crop (evaluation scale 0-5) (transplanted rice): 0 (mortality of less than 5% (almost ineffective))
- C: ducksalad, herbicidal effect (evaluation scale 0-5) (ducksalad [1]): 5 (mortality of 90% or above (nearly complete death))
- A: barnyardgrass, herbicidal effect (evaluation scale 0-5) (barnyardgrass [2]): 5 (mortality of 90% or above (nearly complete death))
- B: bulrush, herbicidal effect (evaluation scale 0-5) (bulrush [3]): 5 (mortality of 90% or above (nearly complete death))
- I: velvetleaf, herbicidal effect (evaluation scale 0-5) (velvetleaf [4]): 5 (mortality of 90% or above (nearly complete death))
- N: common chickweed, herbicidal effect (evaluation scale 0-5) (common chickweed [5]): 5 (mortality of 90% or above (nearly complete death))
- J: common ragweed, herbicidal effect (evaluation scale 0-5) (common ragweed [6]): 5 (mortality of 90% or above (nearly complete death))
- D: large crabgrass, herbicidal effect (evaluation scale 0-5) (large crabgrass [7]): 5 (mortality of 90% or above (nearly complete death))
- E: giant foxtail, herbicidal effect (evaluation scale 0-5) (giant foxtail [8]): 5 (mortality of 90% or above (nearly complete death))
- A: barnyardgrass, herbicidal effect (evaluation scale 0-5) (barnyardgrass [9]): 5 (mortality of 90% or above (nearly complete death))
- H: Italian ryegrass, herbicidal effect (evaluation scale 0-5) (Italian ryegrass [10]): 5 (mortality of 90% or above (nearly complete death))
- M: posumbu knotweed, herbicidal effect (evaluation scale 0-5) (posumbu knotweed [11]): 5 (mortality of 90% or above (nearly complete death))
- O: beadstraw, herbicidal effect (evaluation scale 0-5) (beadstraw [12]): 0 (mortality of less than 5% (almost ineffective))
- K: redroot pigweed, herbicidal effect (evaluation scale 0-5) (redroot pigweed [13]): 1 (mortality of at least 5% and less than 20%)
- G: water foxtail, herbicidal effect (evaluation scale 0-5) (water foxtail [14]): 5 (mortality of 90% or above (nearly complete death))
- L: common lambsquater, herbicidal effect (evaluation scale 0-5) (common lambsquater [15]): 4 (mortality of at least 70% and less than 90%)
- I: velvetleaf, herbicidal effect (velvetleaf [16]): 3 (mortality of at least 40% and less than 70%)
- N: common chickweed, herbicidal effect (common chickweed [17]): 4 (mortality of at least 70% and less than 90%)
- J: common ragweed, herbicidal effect (common ragweed [18]): 3 (mortality of at least 40% and less than 70%)
- D: large crabgrass, herbicidal effect (large crabgrass [19]): 4 (mortality of at least 70% and less than 90%)
- E: giant foxtail, herbicidal effect (giant foxtail [20]): 5 (mortality of 90% or above (nearly complete death))
- A: barnyardgrass, herbicidal effect (barnyardgrass [21]): 5 (mortality of 90% or above (nearly complete death))
- H: Italian ryegrass, herbicidal effect (Italian ryegrass [22]): 4 (mortality of at least 70% and less than 90%)
- M: posumbu knotweed, herbicidal effect (posumbu knotweed [23]): 1 (mortality of at least 5% and less than 20%)
- O: beadstraw, herbicidal effect (beadstraw [24]): 5 (mortality of 90% or above (nearly complete death))
- K: redroot pigweed, herbicidal effect (redroot pigweed [25]): 0 (mortality of less than 5% (almost ineffective))
- G: water foxtail, herbicidal effect (water foxtail [26]): 5 (mortality of 90% or above (nearly complete death))
- L: common lambsquater, herbicidal effect (common lambsquater [27]): 4 (mortality of at least 70% and less than 90%)
- C: ducksalad, herbicidal effect (evaluation scale 0-5) (ducksalad [28]): 5 (mortality of 90% or above (nearly complete death))
- A: barnyardgrass, herbicidal effect (evaluation scale 0-5) (barnyardgrass [29]): 5 (mortality of 90% or above (nearly complete death))
- B: bulrush, herbicidal effect (evaluation scale 0-5) (bulrush [30]): 5 (mortality of 90% or above (nearly complete death))
